Laboratory results from patent US10005773B2, “1-(4-pyrimidinyl)-1H-pyrrolo[3,2-c]pyridine derivatives as NIK inhibitors” (Janssen Pharmaceutica NV, priority 2013, dated 2018).

What was measured:
[1] = system: LP-1 cells; assay: Biological Assay C: antiproliferative activity on LP-1 cells (CellTiter-Glo); format: cell-based; conditions: Homo sapiens, 72 hr treatment
Description: (§1) Determination of Antiproliferative Activity on LP-1, L-363 and JJN-3 Cells
(§2) All compounds tested were dissolved in DMSO and further dilutions were made in culture medium. Final DMSO concentration was 0.3% (v/v) in cell proliferation assays. Viability was assessed using CellTiter-Glo cell viability assay kit (Promega). The human LP-1, L-363 and JJN-3 cells (DSMZ) were cultured in RPMI 1640 medium supplemented with 2 mM L-glutamine, and 10% fetal calf serum (PAA). Cells were routinely kept as suspension cells at 37° C. in a humidified 5% CO2 atmosphere. Cells were passaged at a seeding density of 0.2×10^6/ml twice a week. Cells were seeded in black tissue culture treated 96-well plates (Perkin Elmer). Densities used for plating ranged from 2,000 to 6,000 cells per well in a total volume of 75 μl medium. After twenty four hours, drugs and/or solvents were added (25 μl) to a final volume of 100 μl. Following 72 hr of treatment plates were removed from the incubator and allowed to equilibrate to room temperature for approx 10 min. 100 μl CellTiter-Glo reagent was added to each well that was then covered (Perkin Elmer Topseal) and shaken on plate shaker for 10 min. Luminescence was measured on a HTS Topcount (Perkin Elmer). Within an experiment, the results for each treatment were the mean of 2 replicate wells. For initial screening purposes, compounds were tested using a 9 point dilution curve (serial 1:3 dilutions). For each experiment, controls (containing no drug) and a blank incubation (containing cells read at the time of compound addition) were run in parallel. The blank value was subtracted from all control and sample values. For each sample, the mean value for cell growth (in relative light units) was expressed as a percentage of the mean value for cell growth of the control.

[2] = system: L-363 cells; assay: Biological Assay C: antiproliferative activity on L-363 cells (CellTiter-Glo); format: cell-based; conditions: Homo sapiens, 72 hr treatment
Description: as §1, §2

[3] = system: JJN-3 cells; assay: Biological Assay C: antiproliferative activity on JJN-3 cells (CellTiter-Glo); format: cell-based; conditions: Homo sapiens, 72 hr treatment
Description: as §1, §2

[4] = molecular target: T1, Recombinant Human NF-kappaB-Inducing Kinase (NIK/MAP3K14) (Homo sapiens, UniProt Q99558); assay: Biological Assay A2: inhibition of auto-phosphorylation of recombinant human NIK/MAP3K14 (AlphaScreen); format: biochemical; conditions: 25 microM ATP, 0.2 nM NIK/MAP3K14, 1 h at 25° C., averaged over all batches, read-out: Alpha-Screen IC50
T1 sequence (Q99558 whole entry): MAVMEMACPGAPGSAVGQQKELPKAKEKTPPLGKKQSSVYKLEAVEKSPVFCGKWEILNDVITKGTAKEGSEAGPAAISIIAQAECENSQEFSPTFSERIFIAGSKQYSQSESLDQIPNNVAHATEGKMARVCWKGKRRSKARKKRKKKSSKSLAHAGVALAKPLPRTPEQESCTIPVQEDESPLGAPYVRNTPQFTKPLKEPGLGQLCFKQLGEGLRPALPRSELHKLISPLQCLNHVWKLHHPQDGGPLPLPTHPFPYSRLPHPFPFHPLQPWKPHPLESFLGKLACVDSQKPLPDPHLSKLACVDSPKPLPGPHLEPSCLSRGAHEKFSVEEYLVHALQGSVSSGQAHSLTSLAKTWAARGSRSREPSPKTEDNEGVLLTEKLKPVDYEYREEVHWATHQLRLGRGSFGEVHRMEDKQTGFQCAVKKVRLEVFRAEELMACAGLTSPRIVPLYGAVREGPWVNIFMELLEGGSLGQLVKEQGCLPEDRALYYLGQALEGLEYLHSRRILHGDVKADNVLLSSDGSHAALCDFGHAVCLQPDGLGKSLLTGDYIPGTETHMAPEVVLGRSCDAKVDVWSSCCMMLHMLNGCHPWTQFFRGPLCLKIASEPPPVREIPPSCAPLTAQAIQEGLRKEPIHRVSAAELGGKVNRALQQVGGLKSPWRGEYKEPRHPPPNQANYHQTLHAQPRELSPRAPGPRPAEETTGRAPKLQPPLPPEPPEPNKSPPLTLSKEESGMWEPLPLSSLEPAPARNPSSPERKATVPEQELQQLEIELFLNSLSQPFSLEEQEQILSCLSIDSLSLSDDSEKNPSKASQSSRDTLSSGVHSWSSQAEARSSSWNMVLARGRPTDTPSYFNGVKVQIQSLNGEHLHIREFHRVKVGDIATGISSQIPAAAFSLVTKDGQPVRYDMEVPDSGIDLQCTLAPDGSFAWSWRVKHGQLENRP
Description: Inhibition of Auto-Phosphorylation of Recombinant Human NF-kappaB-Inducing Kinase (NIKIMAP3K14) Activity (AlphaScreen®)
NIK/MAP3K14 auto-phosphorylation activity was measured using the AlphaScreen® (ascreen) format (Perkin Elmer). All compounds tested were dissolved in dimethyl sulfoxide (DMSO) and further dilutions were made in assay buffer. Final DMSO concentration was 1% (v/v) in assays. Assay buffer was 50 mM Tris pH 7.5 containing 1 mM EGTA (ethylene glycol tetraacetic acid), 1 mM DTT (dithiothreitol), 0.1 mM Na3VO4, 5 mM MgCl2, 0.01% Tween® 20. Assays were carried out in 384 well Alphaplates (Perkin Elmer). Incubations consisted of compound, 25 microM Adenosine-5′-triphosphate (ATP), and 0.2 nM NIK/MAP3K14. Incubations were initiated by addition of GST-tagged NIK/MAP3K14 enzyme, carried out for 1 h at 25° C. and terminated by addition of stop buffer containing anti-phospho-IKK Ser176/180 antibody. Protein A Acceptor and Glutathione-Donor beads were added before reading using an EnVision® Multilabel Plate Reader (Perkin Elmer). Signal obtained in the wells containing blank samples was subtracted from all other wells and IC50's were determined by fitting a sigmoidal curve to % inhibition of control versus Log10 compound concentration.

[5] = system: P-IKKα levels in L363 cells; assay: Biological Assay B: effect of compounds on P-IKKα levels in L363 cells; format: cell-based; conditions: Homo sapiens, L-363, BAFF stimulated, 2 hr treatment, averaged over all batches, read-out: IKKα Cellular IC50
Description: Effect of Compounds on P-IKKα Levels in L363 Cells
All compounds tested were dissolved in DMSO and further dilutions were made in culture medium. Final DMSO concentration was 1% (v/v) in cell assays. The human L363 cells (ATCC) were cultured in RPMI 1640 medium supplemented with GlutaMax and 10% fetal calf serum (PAA). Cells were routinely maintained at densities of 0.2×10^6 cells per ml-1×10^6 cells per ml at 37° C. in a humidified 5% CO2 atmosphere. Cells were passaged twice a week splitting back to obtain the low density. Cells were seeded in 96 well plates (Nunc 167008) at 2×10^6 per ml media in a volume of 75 μl per well plus 25 μl 1 μg/ml recombinant human B-cell activating factor (BAFF/BLyS/TNFSF13B). Seeded cells were incubated at 37° C. in a humidified 5% CO2 atmosphere for 24 hr. Drugs and/or solvents were added (20 μl) to a final volume of 120 μl. Following 2 hr treatment plates were removed from the incubator and cell lysis was achieved by the addition of 30 μl 5× lysis buffer followed by shaking on a plate shaker at 4° C. for 10 min. At the end of this incubation lysed cells were centrifuged at 800×g for 20 min at 4° C. and the lysate was assessed for P-IKKα levels by sandwich immuno-assay carried out in anti-rabbit antibody coated Mesoscale plates. Within an experiment, the results for each treatment were the mean of 2 replicate wells. For initial screening purposes, compounds were tested using an 8 point dilution curve (serial 1:3 dilutions). For each experiment, controls (containing MG132 and BAFF but no test drug) and a blank incubation (containing MG132 and BAFF and 10 μM ADS125117, a test concentration known to give full inhibition) were run in parallel. The blank incubation value was subtracted from all control and sample values. To determine the IC50 a sigmoidal curve was fitted to the plot of % inhibition of control P-IKKα levels versus Log10 compound concentration.

[6] = molecular target: T1, Recombinant Human NF-kappaB-Inducing Kinase (NIK/MAP3K14); assay: Biological Assay A: inhibition of recombinant human NIK/MAP3K14 activity (MSD, MBP substrate); conditions: 25 μM ATP, 10 nM NIK/MAP3K14, 1 h at 25° C.; averaged over all batches; read-out: Biochemical (MSD MBP) IC50
Description: Inhibition of Recombinant Human NF-kappaB-Inducing Kinase (NIKIMAP3K14) Activity
Assay buffer was 50 mM Tris pH 7.5 containing 1 mM ethylene glycol tetraacetic acid (EGTA), 1 mM dithiothreitol (DTT), 0.1 mM Na3VO4, 5 mM MgCl2, 0.01% Tween® 20. Assays were carried out in 384 well Mesoscale high binding plates which had been coated with myelin basic protein (MBP) and blocked with bovine serum albumin to prevent non-specific protein binding. All compounds tested were dissolved in dimethyl sulfoxide (DMSO) and further dilutions were made in assay buffer. Final DMSO concentration was 1% (v/v) in assays. Incubations consisted of compound (1% DMSO in control and blank wells), 25 μM Adenosine-5′-triphosphate (ATP), and 10 nM NIK/MAP3K14 substituting enzyme with buffer in the blank wells. Incubations were carried out for 1 h at 25° C. and were followed by washing and sequential incubation with rabbit anti-phospho-MBP and anti-rabbit Ig Sulfotag antibody before reading bound Sulfotag on a Mesoscale Discovery. Signal obtained in the wells containing blank samples was subtracted from all other wells and IC50's were determined by fitting a sigmoidal curve to % inhibition of control versus Log10 compound concentration.

| SMILES | EC50 [1] [nM] | EC50 [2] [nM] | EC50 [3] [nM] | IC50 [4] [nM] | IC50 [5] [nM] | IC50 [6] [nM] |
| --- | --- | --- | --- | --- | --- | --- |
| CC(O)(C#Cc1cc2c(cn1)c(C1CCN(CCC(F)(F)F)CC1)cn2-c1ccnc(N)n1)C1CC1 (single isomer, unassigned) [Compound 51] | 199 | 108 | 220 | 13 |  |  |
| Nc1nccc(-n2ccc3cnc(C#CC4(O)CCCC4)cc32)n1 [Compound 1] | 929 | 673 | 320 |  | 13 | 8.9 |
| CN(C)C(=O)c1cn(-c2ccnc(N)n2)c2cc(C#CC(C)(C)O)ncc12 [Compound 2] | > 30000 | 5030 | 3320 | 180 | 1060 | 73 |
| CC(C)(O)C#Cc1cc2c(ccn2-c2ccnc(N)n2)cn1 [Compound 3] | 84 | 43 | 46 |  | 13 |  |
| Nc1nccc(-n2ccc3cnc(C#CC4(O)CC4)cc32)n1 [Compound 4] | 122 | 62 | 56 | 5.6 | 7.3 | 3.9 |
| CC(O)(C#Cc1cc2c(ccn2-c2ccnc(N)n2)cn1)c1nccs1 (stereo not drawn) [Compound 5] | 3310 | 2920 | 237 | 10 | 18 | 2.4 |
| CNc1nccc(-n2ccc3cnc(C#CC(C)(C)O)cc32)n1 [Compound 6] | 929 | 774 | 744 | 80 | 204 | 55 |
| CC(CC#N)c1cn(-c2nc(N)ncc2F)c2cc(C#CC(C)(C)O)ncc12 (stereo not drawn) [Compound 38] | 2600 | 261 | 614 | 38 |  |  |
| COCCCc1cn(-c2nc(N)ncc2F)c2cc(C#CC(C)(C)O)ncc12 [Compound 39] | 849 | 369 | 579 | 36 |  |  |
| CC(C)(O)C#Cc1cc2c(cn1)c(C1CCN(CCF)CC1)cn2-c1nc(N)ncc1F [Compound 40] | 259 | 93 | 151 | 74 |  |  |
| CN1CCC(c2cn(-c3ccnc(N)n3)c3cc(C#CC(C)(O)C4CC4)ncc23)CC1 (stereo not drawn) [Compound 41] | 3240 | 213 | 311 | 78 |  |  |
| CC(O)(C#Cc1cc2c(cn1)c(C1(F)CN(C3CC3)C1)cn2-c1ccnc(N)n1)C1CC1 (stereo not drawn) [Compound 42] | 18200 | 1540 | 2790 | 638 |  |  |
| CC(O)(C#Cc1cc2c(cn1)c(C1CCN(CCC(F)(F)F)CC1)cn2-c1ccnc(N)n1)C1CC1 (stereo not drawn) [Compound 43] | 461 | 292 | 442 | 67 |  |  |
| CC(O)(C#Cc1cc2c(cn1)c(C1CCN(C3CC3)CC1)cn2-c1ccnc(N)n1)C1CC1 (stereo not drawn) [Compound 44] | 251 | 98 | 202 | 71 |  |  |
| [2H]C([2H])([2H])C(O)(C#Cc1cc2c(cn1)c(C1CCN(C3CC3)CC1)cn2-c1ccnc(N)n1)C([2H])([2H])[2H] [Compound 45] | 29 | 8.3 | 19 | 49 |  |  |
| CC(O)(C#Cc1cc2c(cn1)c(C1CCN(CCC(F)(F)F)CC1)cn2-c1nc(N)ncc1F)C1CC1 (stereo not drawn) [Compound 46] | 979 | 469 | 1090 | 56 |  |  |
| CC(O)(C#Cc1cc2c(cn1)c(C1CCN(CCCF)CC1)cn2-c1nc(N)ncc1F)C1CC1 (stereo not drawn) [Compound 47] | 237 | 113 | 242 | 34 |  |  |
| CC(O)(C#Cc1cc2c(cn1)c(C1CCCN(CCC(F)(F)F)C1)cn2-c1nc(N)ncc1F)C1CC1 (stereo not drawn) [Compound 48] | 2230 | 1000 | 1670 | 227 |  |  |
| [2H]C([2H])([2H])C(O)(C#Cc1cc2c(cn1)c(C1CCN(CCC(F)(F)F)CC1)cn2-c1nc(N)ncc1F)C([2H])([2H])[2H] [Compound 49] | 244 | 130 | 231 | 69 |  |  |
| [2H]C([2H])([2H])C(O)(C#Cc1cc2c(cn1)c(C1CCN(CCC(F)(F)F)CC1)cn2-c1ccnc(N)n1)C([2H])([2H])[2H] [Compound 50] | 41 | 23 | 39 | 30 |  |  |
| [2H]C([2H])([2H])C(O)(C#Cc1cc2c(cn1)c(C1CCN(Cc3ccccc3)CC1)cn2-c1ccnc(N)n1)C([2H])([2H])[2H] [Compound 52] | 65 | 49 | 89 | 31 |  |  |
| [2H]C([2H])([2H])N1CCC(c2cn(-c3ccnc(N)n3)c3cc(C#CC(O)(C([2H])([2H])[2H])C([2H])([2H])[2H])ncc23)CC1 [Compound 53] | 107 | 12 | 32 | 35 |  |  |
| Cc1cc(C(C)(O)C#Cc2cc3c(cn2)c(C2CCN(C)CC2)cn3-c2ccnc(N)n2)no1 (stereo not drawn) [Compound 54] | 2530 | 213 | 656 | 42 |  |  |
| CN1CCC(c2cn(-c3ccnc(N)n3)c3cc(C#CC(C)(O)c4nccs4)ncc23)CC1 (stereo not drawn) [Compound 56] | 7890 | 1240 | 2490 | 26 |  |  |
